Laboratory results: patent US9260382B2, “Methods of reducing virulence in bacteria” (priority 2010, dated 2016)
“Also recorded” adds a separate entry of the source.

Legend:
hrpA promoter (T3SS) [1] = test: hrpA promoter-probe phrpA in Erwinia amylovora 273, flow cytometry; type: cell-based; settings: Ea273 (phrpA), HIM + 100 μM compound
Protocol: Wild-type Erwinia amylovora 273 was used in this study. The promoter-probe plasmid phrpA was constructed as follows. The hrpA promoter region of Erwinia amylovora 273 was amplified and cloned into pPROBE-NT to produce PhrpA. Plasmid PhrpA was electroporated into Erwinia amylovora 273. Expression of hrpA was analyzed using a FACS Calibur flow cytometer (BD Biosciences, CA). Wild-type Erwinia amylovora 273 containing phrpA was cultured in a hrp-inducing medium (HIM) containing dimethyl sulfoxide (DMSO; solvent of chemical compounds), or HIM supplemented with 100 μM of each compound, and promoter activity was assessed at 6 h and 9 h by measuring GFP intensity using flow cytometry (Table 19).

hrpS promoter = test: GFP reporter plasmid phrpS, flow cytometry of hrpS promoter activity; type: cell-based, Dickeya dadantii 3937; settings: reporter plasmid phrpS
Protocol: (§1) FACS analysis of promoter activity of dspE, hrpA, hrpL, hrpN, and hrpS was carried out as described (Peng et al., 2006). Briefly, the wild-type Ech3937 and the mutant strains carrying the promoter reporter plasmid were grown on LB broth at 28° C. overnight and transferred to appropriate media. For FACS analysis, samples were collected by centrifugation, washed with 1× phosphate buffer saline (PBS) at 13,000 rpm for 1 min, and re-suspended in 1×PBS to ca 10^6 CFU/ml prior to being run in a FACS Calibur flow cytometer (BD Biosciences, CA). Three replicates were performed for each treatment.
To test for an inhibitory effect on T3SS hrpS expression, the reporter plasmid phrpS was used to measure the effects of these compounds on hrpA expression.

hrpA promoter (T3SS) [2] = test: GFP reporter plasmid phrpA, flow cytometry (FACS) of hrpA promoter activity; type: cell-based, Dickeya dadantii 3937; settings: for mean fluorescence intensity of GFP, hrpA expression: D. dadantii 3937 (phrpA), MM + 100 μM compound; for inhibitory activity on T3SS gene (hrpA) expression, in words: D. dadantii 3937, reporter plasmid phrpA, 100 μM; for minimal effective concentration: Dickeya dadantii, read-out: minimal inhibitory concentration on hrpA expression (concentration showing inhibitory effect)
Protocol: as §1
To identify potential compounds that repress activation of T3SS, analogs and isomers of TCA and intermediates of salicylic acid and phenypropanoid biosynthesis pathways in plants were further screened for their effect on Ech3937 hrpA expression by flow cytometry (Table 9). A green fluorescent protein (GFP) reporter plasmid phrpA (pProbe-AT derivative with PCR fragment containing hrpA promoter region) was constructed, resulting in a transcriptional fusion of hrpA promoter with GFP gene. Bacterial cells containing phrpA plasmid were grown in MM supplemented with 0.1 mM of each compound. GFP intensity, which is a measurement of hrpA promoter activity, was measured by flow cytometry.
hrpA encodes the T3SS pilus required for protein translocation into plant cells. To test for an inhibitory effect on T3SS hrpA expression, the reporter plasmid phrpA was used to measure the effects of these compounds on hrpA expression. The reporter plasmid phrpA encodes a transcriptional fusion of the hrpA promoter controlling expression of green fluorescent protein (gfp). 50 μL of bacterial suspension of D. dadantii 3937 carrying the hrpA reporter (optical density at 600 nm OD600=1.0) was used as the initial inoculum and added to 5 mL of MM or MM supplemented with 100 μM of one of the compounds. The expression level of hrpA of these bacterial cells was measured by measuring GFP intensity of gated populations of the bacterial cells by flow cytometry and analyzed with Cell Quest software (BD Biosciences, San Jose, Calif.). The fluorescence intensities were an average GFP fluorescence intensity of total bacterial cells. Compounds were assayed two different times (12 and 24 h of bacterial growth) with T3SS minimal media (MM) as the control treatment for each set of experiment. Values presented in Table 14 are mean fluorescence intensity of GFP, representative of two experiments, presented as the average of three replicates with standard deviation (SD).

P. aeruginosa = P. aeruginosa bacterial growth with compound; type: cell-based, P. aeruginosa PA01; settings: P. aeruginosa, 250 μM
Protocol: (§2) To identify T3SS inhibitors of PA01, a promoter-probe vector pPROBE-AT containing the promoterless green fluorescent protein (gfp) gene was used to construct an exoS promoter-gfp plasmid reporter, pATexoS. PA01 containing pATexoS was cultured in T3SS-inducing medium containing dimethyl sulfoxide (DMSO; solvent of chemical compounds), or supplemented with 250 μM of each compound, and promoter activity was assessed at 6 h by measuring GFP intensity using flow cytometry. 101 compounds (58 synthesized and 43 commercially available) were screened. Compounds 027, 032, 101, and 149 repressed exoS expression at the final concentration of 250 μM by at least one standard deviation below the sample average (Z score≦−1) (FIG. 37 A-E). Z score (or standard score) indicates how many standard deviations an observation or datum is above or below the mean [z=(x−μ)/σ, where x is a raw score to be standardized, μ is the mean of the population, and σ is the standard deviation of the population].
(§3) To determine the effective concentration of compounds, the dose-dependent effect of potential inhibitors on exoS expression and bacterial growth were tested. P. aeruginosa cells carrying pATexoS were pre-cultured in LB supplemented with 200 mM NaCl and transferred to fresh LB with 200 mM NaCl, 10 mM NTA, and various concentrations of compounds (20, 50, 100, and 250 μM) or DMSO for 6 h. […] At 50 μM dosage, both 027 and 101 inhibited exoS expression at similar levels, and this inhibitory effect increased as compound concentration increased (FIG. 38A and Table 17). […] These inhibitions/inductions of exoS expression are caused by the shifting bacterial population between low-state expression cells and high-state expression cells (FIG. 40).

exoS promoter (T3SS) = test: exoS promoter-gfp reporter pATexoS, flow cytometry; type: cell-based, P. aeruginosa PA01; settings: for Actual readings of flow cytometry (exoS expression): 6 h, LB with 200 mM NaCl, 10 mM NTA; for Fraction of untreated control (exoS expression): structure-activity table, concentration not given; for effect on exoS promoter activity, in words: screening for T3SS inhibitors
Protocol: as §2, §3

[3] = Trial 1, MM supplemented with compound at 100 μM
[4] = Trial 2, MM supplemented with compound at 100 μM

Row | SMILES | Avg MFI ± SD, hrpA expression (hrpA promoter (T3SS) [1]; 6 h) | Avg MFI ± SD, hrpA expression (hrpA promoter (T3SS) [1]; 9 h) | inhibitory effect on T3SS hrpS expression, in words (hrpS promoter) | mean fluorescence intensity of GFP, hrpA expression (hrpA promoter (T3SS) [2]; 12 h) | mean fluorescence intensity of GFP, hrpA expression (hrpA promoter (T3SS) [2]; 24 h) | inhibitory activity on T3SS gene (hrpA) expression, in words (hrpA promoter (T3SS) [2]) | minimal effective concentration (hrpA promoter (T3SS) [2]) [µM] | Mean Fluorescence Intensity of GFP (hrpA, phrpA) (hrpA promoter (T3SS) [2]; [3]) | effect on bacterial growth, in words (P. aeruginosa) | Actual readings of flow cytometry (exoS expression) (exoS promoter (T3SS); 20 uM) | Actual readings of flow cytometry (exoS expression) (exoS promoter (T3SS); 50 uM) | Actual readings of flow cytometry (exoS expression) (exoS promoter (T3SS); 100 uM) | Actual readings of flow cytometry (exoS expression) (exoS promoter (T3SS); 250 uM) | Fraction of untreated control (exoS expression) (exoS promoter (T3SS)) | Mean Fluorescence Intensity of GFP (hrpA, phrpA) (hrpA promoter (T3SS) [2]; [4]) | effect on exoS promoter activity, in words (exoS promoter (T3SS))
1 | CCOC(=O)[C@@H]1C[C@H]1c1ccc(O)cc1 (relative stereo) [Compound 106, Ethyl trans-2-(4-hydroxyphenyl)-1-cyclopropanecarboxylate] | 1289.3 ± 46.5 | 1110.9 ± 67.5 | inhibited hrpS | 10.5 ± 0.8 | 49.4 ± 4.1 | showed inhibitory effect; also recorded: strong inhibitory potency | 100 | 9.4 ± 0.1 |  |  |  |  |  |  |  | 
2 | OC/C=C/c1ccccc1 [Compound 032, Cinnamyl alcohol] | 681.6 ± 217.9 | 784.0 ± 53.3 |  |  |  |  |  |  | minor alterations in bacterial growth |  |  |  |  |  |  | 
3 | COC(=O)/C=C/c1ccc(O)cc1 [Compound 101, Methyl para-coumate] | 1443.4 ± 49.4 | 1227.8 ± 41.6 |  | 17.5 ± 0.7 | 19.9 ± 0.5 |  | 100 |  |  | 122.82 ± 2.89 | 106.83 ± 3.09 | 100.10 ± 1.33 | 81.88 ± 2.41 | 0.65 ± 0.03 |  | 
4 | O=C(O)/C=C/c1ccc(Br)cc1 [Compound 111, trans-4-Bromocinnamic acid] | 102.8 ± 23.5 | 61.8 ± 4.2 | inhibited hrpS | 23.9 ± 5.2 | 54.7 ± 7.2 | showed inhibitory effect; also recorded: moderate potency |  | 16.5 ± 0.8 |  |  |  |  |  |  |  | 
5 | COc1ccc(/C=C/CN2C(=O)c3ccccc3C2=O)cc1 [Compound 118, N-(4-Methoxycinnamyl)phthalimide] | 361.3 ± 28.6 | 520.4 ± 16.2 |  | 59.0 ± 0.4 | 83.8 ± 1.7 |  |  |  |  |  |  |  |  |  |  | 
6 | COc1ccc(/C=C/CN)cc1 [Compound 119, trans-4-Methoxycinnamylamine] | 208.6 ± 18.6 | 232.9 ± 44.4 |  | 47.8 ± 3.2 | 68.2 ± 10.4 | did not show any inhibitory activity |  |  |  |  |  |  |  |  |  | 
7 | CCOS(=O)(=O)/C=C/c1ccc(OC)cc1 [Compound 120, Ethyl trans-2-(4-methoxyphenyl)-ethenylsulfonate] | 371.5 ± 29.7 | 492.0 ± 37.6 |  | 49.9 ± 2.6 | 68.6 ± 6.0 | did not exhibit any activity |  |  |  |  |  |  |  |  |  | 
8 | CCOS(=O)(=O)/C=C/c1ccc(O)cc1 [Compound 122, Ethyl trans-2-(4-hydroxyphenyl)-ethenylsulfonate] | 2042.8 ± 20.7 | 2900.6 ± 120.1 |  | 38.6 ± 1.8 | 60.9 ± 0.8 | did not exhibit any activity |  |  |  |  |  |  |  |  |  | 
9 | O=C(O)/C=C/c1ccc(CO)cc1 [Compound 124, trans-4-Hydroxymethylcinnamic acid] | 419.8 ± 12.2 | 444.3 ± 11.4 |  | 44.9 ± 3.5 | 78.1 ± 3.4 | did not show any inhibitory activity |  |  |  |  |  |  |  |  |  | 
10 | COc1ccc(/C=C/CO)cc1 [Compound 126, trans-4-Methoxycinnamyl alcohol] | 386.9 ± 9.4 | 401.4 ± 10.8 | inhibited hrpS | 7.8 ± 0.2 | 13.4 ± 0.3 | showed inhibitory effect; also recorded: potent inhibitor | 100 |  |  |  |  |  |  |  | 9.5 ± 0.7 | 
11 | O=C(/C=C/c1c[nH]c2ccccc12)NO [Compound 127, trans-3-Indoleacrylohydroxamic acid] | 91.4 ± 4.9 | 102.7 ± 0.5 | inhibited hrpS | 21.0 ± 3.0 | 35.1 ± 3.0 | showed inhibitory effect; also recorded: moderate potency | 100 |  |  |  |  |  |  |  | 26.2 ± 2.6 | 
12 | O=C(/C=C/c1ccccc1)NO [Compound 132, trans-Cinnamohydroxamic acid] | 145.7 ± 1.2 | 147.8 ± 4.2 |  |  |  |  |  |  |  |  |  |  |  | 1.53 ± 0.19 |  | little or no effect on exoS promoter activity
13 | CNC(=O)/C=C/c1ccc(O)cc1 [Compound 137, N-Methyl-4-hydroxycinnamamide] | 1064.1 ± 99.3 | 1121.1 ± 52.1 |  |  |  |  |  |  |  |  |  |  |  | 0.92 ± 0.05 |  | little or no effect on exoS promoter activity
14 | O=C(/C=C/c1cccc(Cl)c1)NO [Compound 149, trans-3-Chlorocinnamohydroxamic acid] | 31.2 ± 34.1 | 21.7 ± 28.5 |  |  |  |  |  |  | minor alterations in bacterial growth |  |  |  |  |  |  | 
